Holding throughout (assay): normalised response (% of control), CellTiter-Glo; higher = more viable cells (100 = DMSO, 0 = benzethonium chloride kill control)
Common to all, as to settings: incubation time: 72 h
On the technique in general: ATP-based viability assays read luminescence as a measure of living cells.

Assay [1] deals with CAL-85-1. In a few lines: (§1)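 After 72 h with compound in 384-well plates, breast cancer cell lines seeded as 20 µl suspension were read for CellTox Green fluorescence at 485/520 nm. CellTiter-Glo luminescence was then read after 10 min at room temperature. Compound was present at 5 concentrations in 10-fold steps over a 10,000-fold range set per compound, and plates were normalised to 0.1 % DMSO (100) and a positive kill control (0). Values are normalised signals, each at a single concentration.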

Assay [2] concerns MFM-223. In a few lines:
as §1

Assay [3] relates to MCF-10A. In a few lines:
as §1

The subject of assay [4] is HDQ-P1. In a few lines:
as §1

Assay [5] concerns HCC1937. In short, it runs like this: as §1
Assay [6] concerns DU-4475. In short, it runs like this:
as §1

Assay [7] concerns MDA-MB-468. In a few lines:
as §1

Assay [8] relates to HCC1143. In short, it runs like this:
as §1

Assay [9] has as its system CAL-148. In short, it runs like this:
as §1

Assay [10] has as its system CAL-120. In a few lines: as §1
Assay [11] deals with MDA-MB-453. In short, it runs like this:
as §1

The test system of assay [12] is Hs578T. In a few lines: as §1
Assay [13] has as its system CAL-51. In short, it runs like this: as §1
Assay [14] concerns HCC1599. In a few lines: as §1

Drawing on the supplement of paper PMC4862054, this text covers normalised response for 10 compounds.

Each structure is given as a SMILES string.

Turning to `O=P1(NCCCl)OCCCN1CCCl` (stereo not given) [Ifosfamide] (1000 nM), the normalised response in [1] was 96.8%; in assay [2], 92.5%; in assay [3], 95.6%; in assay [4], 104%; in [5] it was 97.7%; in assay [6], 90.6%. Besides, the normalised response in [7] was 90.9%; in [8], 94.7%; in assay [9], 89%; in assay [10] it was 91.4%; in assay [11] it was 92.5%; in [12], 97.8%. Moreover, the figures for the normalised response in assay [13] and in assay [14] were 105% and 96.1%, respectively.
`Cc1ccc(C(=O)Nc2ccc(CN3CCN(C)CC3)c(C(F)(F)F)c2)cc1C#Cc1cnc2cccnn12` [Ponatinib] (100 nM): the normalised response worked out at 105% in assay [1]; 54.5% in assay [2]; 103% in assay [3]; 92.1% in assay [4]; 97.2% in [5]; 99.3% in assay [6]. Moreover, the normalised response in assay [7] stood at 120%; in [8] it was 97.6%; in assay [9], 99.6%; in assay [10], 86.3%; in assay [11] it was 110%; in [12], 96.5%. Also, the results for the normalised response in [13] and in [14] were 112% and 117%, respectively.
Consider `N[C@@H](CSC(c1ccccc1)(c1ccccc1)c1ccccc1)C(=O)O` [S-trityl-L-cysteine] (4000 nM), for which the normalised response in assay [1] turned out to be 99.8%; in [2] it was 101%; in assay [3] it was 96.3%; in assay [4], 99.5%; in [5] it was 97.3%; in [6] it was 91.1%. Further, the normalised response in assay [7] came out at 105%; in [8] it was 94%; in assay [9], 97.6%; in assay [10], 102%; in [11], 103%; in assay [12] it was 99.2%. The normalised response in [13] turned out to be 87.3%; in assay [14], 109%.
As to `CCC1(c2ccc(N)cc2)CCC(=O)NC1=O` (stereo not given) [Aminoglutethimide] (1000 nM), the normalised response is 103% in assay [1]; 101% in [2]; 101% in assay [3]; 97% in assay [4]; 96.8% in assay [5]; 101% in [6]. Also, the normalised response was 105% in assay [7]; 97.6% in assay [8]; 96.2% in [9]; 105% in assay [10]; 100% in [11]; 101% in [12]. For the same compound, the normalised response in assay [13] was found to be 80.4%; in [14], 115%.
As for `Oc1nc(-c2ccc(C(F)(F)F)cc2)nc2c1CSCC2` [XAV-939] (1000 nM), the normalised response in assay [1] was found to be 105%; in [2], 96.1%; in assay [3] it was 88.8%; in [4], 101%; in assay [5], 91.1%; in [6] it was 92.8%. The normalised response came to 82% in assay [7]; 88.8% in assay [8]; 89.8% in assay [9]; 92% in assay [10]; 91.4% in [11]; 92.3% in assay [12]. Moreover, the normalised response in assay [13] was determined as 89.3%; in [14], 104%.
On to `COc1cc2nccc(Oc3ccc(NC(=O)C4(C(=O)Nc5ccc(F)cc5)CC4)cc3)c2cc1OC` [Cabozantinib] (100 nM), for which the normalised response was 93.6% in assay [1]; 98.7% in assay [2]; 88.6% in [3]; 97.6% in assay [4]; 95.6% in [5]; 99.6% in assay [6]. In addition, the normalised response in assay [7] is 96.7%; in assay [8], 92.2%; in assay [9] it was 98.1%; in assay [10], 101%; in assay [11], 106%; in assay [12] it was 103%. For the same compound, the values for the normalised response in assay [13] and in assay [14] were 109% and 117%, respectively.
On to `CCC1=C[C@@H]2CN(C1)Cc1c([nH]c3ccccc13)[C@@](C(=O)OC)(c1cc3c(cc1OC)N(C)[C@H]1[C@@](O)(C(=O)OC)[C@H](OC(C)=O)[C@]4(CC)C=CCN5CC[C@]31[C@@H]54)C2` [Vinorelbine] (1000 nM), for which the normalised response in [1] was 39%; in [2] it was 39.3%; in assay [3], 63%; in assay [4], 76.2%; in assay [5] it was 73.8%; in assay [6], 69.9%. Also, the normalised response in assay [7] stood at 30.3%; in assay [8] it was 56.9%; in [9] it was 43.2%; in [10] it was 66.9%; in assay [11], 56.1%; in [12], 35.5%. The normalised response in [13] is 26.7%; in assay [14] it was 26%.
As to `CNCc1ccc(-c2[nH]c3cc(F)cc4c3c2CCNC4=O)cc1` [Rucaparib] (1000 nM), the normalised response in assay [1] came to 110%; in [2] it was 96.3%; in [3], 101%; in [4], 98.8%; in assay [5], 105%; in assay [6], 97.6%. Moreover, the normalised response in assay [7] is 93.5%; in [8], 94.1%; in assay [9], 95.3%; in assay [10], 105%; in [11], 100%; in assay [12] it was 107%. The normalised response amounted to 106% in assay [13] and 94.4% in [14].
In the case of `Cc1ccc(-n2nc(C(C)(C)C)cc2NC(=O)Nc2ccc(OCCN3CCOCC3)c3ccccc23)cc1` [Doramapimod] (1000 nM), the normalised response was determined as 121% in assay [1]; 87.6% in assay [2]; 89.1% in assay [3]; 89.1% in assay [4]; 95.1% in [5]; 96% in assay [6]. Besides, the normalised response in [7] was determined as 87.5%; in assay [8], 95.2%; in [9], 80.3%; in assay [10], 101%; in assay [11], 85.8%; in assay [12], 97%. In addition, the values for the normalised response in assay [13] and in assay [14] were 111% and 108%, respectively.
For `O=C1CCC(N2C(=O)c3ccccc3C2=O)C(=O)N1` (stereo not given) [Thalidomide] (1000 nM), the normalised response was found to be 94.5% in assay [1]; 93.8% in assay [2]; 102% in assay [3]; 101% in assay [4]; 98% in assay [5]; 100% in assay [6]. Besides, the normalised response in assay [7] stood at 106%; in [8] it was 95.9%; in assay [9], 96%; in assay [10], 101%; in [11] it was 102%; in assay [12], 107%. Moreover, the normalised response in [13] was determined as 120%; in assay [14] it was 114%.
